{
  "source": "patent US20120149765A1",
  "about": "“SGK1 AS DIAGNOSTIC AND THERAPEUTIC TARGET” (priority 2003, published 2012)",
  "key": {"[1]": {"test_system": "human vascular smooth muscle cells (HAOSMC)", "experiment": "procoagulant activity of human vascular smooth muscle cells (thrombin formation in recalcified platelet-poor plasma)", "assay_type": "cell-based", "conditions": "additional administration of thrombin; cells expressing sgk-WT or sgk-MT; effect more pronounced and more rapid with intact kinase", "method": "In FIG. 1, the procoagulant activity, in % of the maximum value, is plotted against the time after recalcification. In the experiment relating to FIG. 1, the procoagulant activity of human vascular smooth muscle cells (HAOSMC) was measured by measuring thrombin formation during the coagulation process in recalcified blood platelet-poor plasma (PPP) (Beguin S, Lidhout T, Hemker H C: Throm. Haemost. 61: 25-29, […]). For this, confluent vascular smooth muscle cells were kept for 24 hours in serum-free medium, then washed three times in HEPES-tyrode solution, and then incubated with human PPP. The formation of thrombin was induced by adding 16.7 mM CaCl2 to the incubation medium. In each case 20 μl of the supernatant were removed every one to two minutes and the formation of thrombin in the removed volume was determined using the dye S-2238 (Haemochrom Diagnostica). The optical density was determined at 405 nm in a spectrophotometer (Uvikon, Contron-instruments)."}, "[2]": {"test_system": "tissue factor mRNA (TF mRNA)", "experiment": "Northern blot of tissue factor mRNA in human vascular smooth muscle cells", "assay_type": "cell-based", "conditions": "thrombin 3 U/ml for 4 hours", "method": "The cells are human vascular smooth muscle cells equivalent to the cells used in the above experiment. 28S rRNA is loaded on as the internal standard. Human TF cDNA was used as the probe. The cells were in each case treated without and with thrombin (3 U/ml) for 4 hours."}},
  "data": [
    {"substance": "thrombin", "values": [
      {"measurement": "increase in procoagulant activity, in % of the maximum value, against time after recalcification", "setting": "[1]", "value": "accelerated"},
      {"measurement": "transcription of the tissue factor mRNA", "setting": "[2]; cells containing active SGK (W) as compared with control cells", "value": "upregulated"},
      {"measurement": "transcription of the tissue factor mRNA", "setting": "[2]; cells containing inactive SGK mutant (M)", "value": "reduced"}
    ]}
  ]
}
